According to patent publication US20190315711A1 (eXIthera Pharmaceuticals, Inc., priority 2016, published 2019):

How the values were obtained:
[1] = target: T1, Factor Xa (Homo sapiens, UniProt P00742); test: Dose response assay for protease inhibitors: Factor Xa; type: biochemical; details: ratio versus Factor XIa
T1 construct: Factor Xa; 0.2 μM in 50% glycerol (9.2 μg/mL)

[2] = target: human Factor XIa (Homo sapiens, UniProt P03951); test: Factor XIa enzyme inhibition assay (dose response, fluorogenic AMC substrate); type: biochemical; design: Enzyme: Factor XIa; details: purified enzyme; substrate 50 μM, enzyme 0.25 nM; read-out: hFXIa IC50
In short: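 Fluorogenic assay in 20 mM Hepes pH 7.4, 150 mM NaCl, 0.02% Tween 20 with 0.25 nM enzyme and 50 μM Glp-Pro-Arg-AMC (final). Fluorescence read every minute for 30 min at 30 °C after serial two-fold compound dilution; IC50 from four-parameter Hill fit of dose-response curves.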

[3] = Caco-2 cell permeability assay (A-B and B-A); type: in vitro ADME; details: human; for Papp A→B at 60 min, 10 μM: A-B direction; for Papp B→A at 40 min, 10 μM: B-A direction
In short: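 Caco-2 monolayers were used 21-25 days post-seeding, with compound at 10 μM (1% DMSO) in HBSS-MES pH 6.5 or HBSS-HEPES pH 7.4 on the donor side. Incubation was at 37° C with shaking for 60 min (A−B) or 40 min (B−A). Donor and receiver samples were quantified by HPLC-MS/MS, and Papp and recovery were calculated.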

[4] = target: T2, Trypsin (Bos taurus, UniProt P00760); test: Dose response assay for protease inhibitors: trypsin; type: biochemical; details: ratio versus Factor XIa
T2 construct: gene PRSS1
T2 sequence (P00760 24-246): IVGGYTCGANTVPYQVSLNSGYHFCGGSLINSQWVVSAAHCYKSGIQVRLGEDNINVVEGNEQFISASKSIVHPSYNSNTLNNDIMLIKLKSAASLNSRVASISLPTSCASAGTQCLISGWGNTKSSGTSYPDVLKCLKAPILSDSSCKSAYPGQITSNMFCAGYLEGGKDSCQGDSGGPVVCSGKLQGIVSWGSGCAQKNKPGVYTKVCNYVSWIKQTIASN

[5] = target: T3, Thrombin (Homo sapiens, UniProt P00734); test: Dose response assay for protease inhibitors: thrombin; type: biochemical; details: ratio versus Factor XIa
T3 construct: Thrombin; 0.2 μM in 50% glycerol (7.34 μg/mL)

T1 sequence (P00742 235-488 limits assumed): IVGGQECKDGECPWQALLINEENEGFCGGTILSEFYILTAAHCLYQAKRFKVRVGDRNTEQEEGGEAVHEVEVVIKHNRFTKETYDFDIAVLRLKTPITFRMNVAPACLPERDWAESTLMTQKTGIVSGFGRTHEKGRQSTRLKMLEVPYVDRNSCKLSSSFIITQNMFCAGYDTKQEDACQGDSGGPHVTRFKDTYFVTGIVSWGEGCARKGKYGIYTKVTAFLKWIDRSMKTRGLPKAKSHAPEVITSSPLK
T1 sequence (P00742 41-179 partner limits assumed): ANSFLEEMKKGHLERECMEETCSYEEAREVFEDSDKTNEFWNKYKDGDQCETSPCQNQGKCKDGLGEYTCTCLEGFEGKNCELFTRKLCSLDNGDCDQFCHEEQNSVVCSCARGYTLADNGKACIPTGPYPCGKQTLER
Sequence of human Factor XIa (P03951 388-625 limits assumed): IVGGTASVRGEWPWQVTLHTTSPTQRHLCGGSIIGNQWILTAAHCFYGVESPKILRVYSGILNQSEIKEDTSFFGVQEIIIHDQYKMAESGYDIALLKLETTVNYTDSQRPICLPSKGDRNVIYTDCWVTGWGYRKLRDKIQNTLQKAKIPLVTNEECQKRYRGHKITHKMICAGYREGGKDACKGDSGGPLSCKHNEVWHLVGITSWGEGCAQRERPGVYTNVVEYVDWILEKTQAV
Sequence of human Factor XIa (P03951 19-387 partner limits assumed): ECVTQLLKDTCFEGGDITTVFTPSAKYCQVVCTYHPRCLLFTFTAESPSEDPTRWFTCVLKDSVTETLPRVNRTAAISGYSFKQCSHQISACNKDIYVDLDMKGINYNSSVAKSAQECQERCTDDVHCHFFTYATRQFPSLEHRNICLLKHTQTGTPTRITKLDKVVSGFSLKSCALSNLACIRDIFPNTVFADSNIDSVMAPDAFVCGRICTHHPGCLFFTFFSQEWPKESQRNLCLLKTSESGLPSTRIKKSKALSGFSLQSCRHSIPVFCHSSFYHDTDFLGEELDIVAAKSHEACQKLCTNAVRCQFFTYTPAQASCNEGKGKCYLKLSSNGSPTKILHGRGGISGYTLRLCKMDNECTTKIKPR

SMILES | FXa/FXIa (selectivity ratio) [1] | IC50 [2] | Papp A→B at 60 min, 10 μM [3] | Papp B→A at 40 min, 10 μM [3] | Ratio: Trypsin/FXIa [4] | Ratio: Thrombin/FXIa [5]
C[C@@H](NC(=O)N1C(=O)[C@H](Cc2ccnc(N)c2)[C@H]1C(=O)N(C)c1ccccc1)C1CCCCC1 [Compound 49] | I (“I” indicates >500) | < 10 nM | > 50 ×10⁻⁶ cm/s | 11 to 30 ×10⁻⁶ cm/s | G (“G” indicates 1-100) | H (“H” indicates 101-1000)
CCC[C@@H](NC(=O)N1C(=O)[C@H](Cc2ccnc(N)c2)[C@H]1C(=O)N(C)c1ccccc1)C1CCCCC1 [Compound 50] | I (“I” indicates >500) | < 10 nM | 31 to 50 ×10⁻⁶ cm/s | ≤ 10 ×10⁻⁶ cm/s | G (“G” indicates 1-100) | G (“G” indicates 1-100)
CN(C(=O)[C@@H]1[C@@H](Cc2ccnc(N)c2)C(=O)N1C(=O)N[C@@H](C1CCCCC1)C1CC1)c1ccncc1 [Compound 52] | I (“I” indicates >500) | < 10 nM | 11 to 30 ×10⁻⁶ cm/s | 31 to 50 ×10⁻⁶ cm/s | G (“G” indicates 1-100) | H (“H” indicates 101-1000)
CC[C@@H](NC(=O)N1C(=O)[C@H](Cc2ccnc(N)c2)[C@H]1C(=O)N(C)c1ccncc1)c1cccnc1 [Compound 59] | I (“I” indicates >500) | < 10 nM | ≤ 10 ×10⁻⁶ cm/s | ≤ 10 ×10⁻⁶ cm/s | G (“G” indicates 1-100) | H (“H” indicates 101-1000)
CC[C@@H](NC(=O)N1C(=O)[C@H](Cc2ccnc(N)c2)[C@H]1C(=O)N(C)c1ncccn1)c1cccnc1 [Compound 61] | H (“H” indicates 101-1000) | < 10 nM | ≤ 10 ×10⁻⁶ cm/s | 11 to 30 ×10⁻⁶ cm/s | G (“G” indicates 1-100) | H (“H” indicates 101-1000)
CC[C@@H](NC(=O)N1C(=O)[C@H](Cc2ccnc(NC)c2)[C@H]1C(=O)N(C)c1ncccn1)C1CCCCC1 [Compound 80] | I (“I” indicates >500) | < 10 nM | 11 to 30 ×10⁻⁶ cm/s | ≤ 10 ×10⁻⁶ cm/s | G (“G” indicates 1-100) | H (“H” indicates 101-1000)
CC[C@@H](NC(=O)N1C(=O)[C@H](Cc2ccnc(N)c2)[C@H]1C(=O)N(C)c1ncncn1)C1CCCCC1 [Compound 81] | I (“I” indicates >500) | < 10 nM | 11 to 30 ×10⁻⁶ cm/s | 11 to 30 ×10⁻⁶ cm/s | H (“H” indicates 101-1000) | H (“H” indicates 101-1000)
CN(C(=O)[C@@H]1[C@@H](Cc2ccnc(N)c2)C(=O)N1C(=O)NC(c1ccccc1)c1ccccc1)c1ccncc1 [Compound 82] | I (“I” indicates >500) | < 10 nM | ≤ 10 ×10⁻⁶ cm/s | 31 to 50 ×10⁻⁶ cm/s | G (“G” indicates 1-100) | H (“H” indicates 101-1000)
CC[C@@H](NC(=O)N1C(=O)[C@H](Cc2ccnc(N)c2)[C@H]1C(=O)N(C)c1ncncn1)c1ccccc1 [Compound 83] | I (“I” indicates >500) | < 10 nM | ≤ 10 ×10⁻⁶ cm/s | > 50 ×10⁻⁶ cm/s | H (“H” indicates 101-1000) | I (“I” indicates >500)
CC[C@@H](NC(=O)N1C(=O)[C@H](Cc2ccnc(N)c2)[C@H]1C(=O)N(C)c1ncccn1)c1ccccc1 [Compound 84] | I (“I” indicates >500) | < 10 nM | ≤ 10 ×10⁻⁶ cm/s | 31 to 50 ×10⁻⁶ cm/s | G (“G” indicates 1-100) | I (“I” indicates >500)
CCC[C@@H](NC(=O)N1C(=O)[C@H](Cc2ccnc(N)c2)[C@H]1C(=O)N(C)c1ccncc1)c1ccccc1 [Compound 86] | I (“I” indicates >500) | < 10 nM | ≤ 10 ×10⁻⁶ cm/s | 31 to 50 ×10⁻⁶ cm/s | G (“G” indicates 1-100) | I (“I” indicates >500)
CC[C@@H](NC(=O)N1C(=O)[C@H](Cc2ccnc(N)c2)[C@H]1C(=O)N(C)c1ccncc1)c1cccc(C)c1 [Compound 87] | I (“I” indicates >500) | < 10 nM | ≤ 10 ×10⁻⁶ cm/s | 31 to 50 ×10⁻⁶ cm/s | G (“G” indicates 1-100) | H (“H” indicates 101-1000)
CC[C@@H](NC(=O)N1C(=O)[C@H](Cc2ccnc(N)c2)[C@H]1C(=O)N(C)c1ccncc1)c1ccc(Cl)cc1 [Compound 89] | H (“H” indicates 101-1000) | < 10 nM | ≤ 10 ×10⁻⁶ cm/s | 31 to 50 ×10⁻⁶ cm/s | G (“G” indicates 1-100) | H (“H” indicates 101-1000)
CC[C@@H](NC(=O)N1C(=O)[C@H](Cc2ccnc(N)c2)[C@H]1C(=O)N(C)c1ccncc1)c1cccc(Cl)c1 [Compound 90] | I (“I” indicates >500) | < 10 nM | ≤ 10 ×10⁻⁶ cm/s | 11 to 30 ×10⁻⁶ cm/s | G (“G” indicates 1-100) | H (“H” indicates 101-1000)
CC[C@@H](NC(=O)N1C(=O)[C@H](Cc2cc(C)nc(N)c2)[C@H]1C(=O)N(C)c1ccccc1)C1CCCCC1 [Compound 91] | I (“I” indicates >500) | < 10 nM | 11 to 30 ×10⁻⁶ cm/s | ≤ 10 ×10⁻⁶ cm/s | G (“G” indicates 1-100) | H (“H” indicates 101-1000)
CC[C@@H](NC(=O)N1C(=O)[C@H](Cc2ccnc(N)c2)[C@H]1C(=O)N(C)c1ccncc1)c1ccccc1Cl [Compound 95] | I (“I” indicates >500) | < 10 nM | ≤ 10 ×10⁻⁶ cm/s | 31 to 50 ×10⁻⁶ cm/s | G (“G” indicates 1-100) | H (“H” indicates 101-1000)
CC[C@H](NC(=O)N1C(=O)[C@H](Cc2ccnc(N)c2)[C@H]1C(=O)N(C)c1ccncc1)c1ccccc1C [Compound 97] | I (“I” indicates >500) | < 10 nM | ≤ 10 ×10⁻⁶ cm/s | 31 to 50 ×10⁻⁶ cm/s | G (“G” indicates 1-100) | H (“H” indicates 101-1000)
CC[C@@H](NC(=O)N1C(=O)[C@H](Cc2ccnc(N)c2)[C@H]1C(=O)N(C)c1ccncc1)c1cccc(C#N)c1 [Compound 99] | I (“I” indicates >500) | < 10 nM | ≤ 10 ×10⁻⁶ cm/s | 11 to 30 ×10⁻⁶ cm/s | G (“G” indicates 1-100) | H (“H” indicates 101-1000)
CC[C@@H](NC(=O)N1C(=O)[C@H](Cc2ccnc(N)c2)[C@H]1C(=O)N(C)c1ccncc1)c1cccc(OC)c1 [Compound 100] | H (“H” indicates 101-1000) | < 10 nM | ≤ 10 ×10⁻⁶ cm/s | 31 to 50 ×10⁻⁶ cm/s | G (“G” indicates 1-100) | H (“H” indicates 101-1000)
CC[C@@H](NC(=O)N1C(=O)[C@H](Cc2cc(C)nc(N)c2)[C@H]1C(=O)N(C)c1ccccc1)c1cccc(Cl)c1 [Compound 120] | I (“I” indicates >500) | < 10 nM | 11 to 30 ×10⁻⁶ cm/s | ≤ 10 ×10⁻⁶ cm/s | G (“G” indicates 1-100) | H (“H” indicates 101-1000)
CC[C@@H](NC(=O)N1C(=O)[C@H](Cc2ccnc(N)c2)[C@H]1C(=O)N(C)c1ncccn1)c1cccc(Cl)c1 [Compound 121] | I (“I” indicates >500) | < 10 nM | 11 to 30 ×10⁻⁶ cm/s | 11 to 30 ×10⁻⁶ cm/s | G (“G” indicates 1-100) | H (“H” indicates 101-1000)
CC[C@@H](NC(=O)N1C(=O)[C@H](Cc2ccnc(NC(=O)OC(C)(C)C)c2)[C@H]1C(=O)N(C)c1ccncc1)c1cccc(Cl)c1 [Compound 127] | H (“H” indicates 101-1000) | 10 to 100 nM | 11 to 30 ×10⁻⁶ cm/s | ≤ 10 ×10⁻⁶ cm/s | H (“H” indicates 101-1000) | H (“H” indicates 101-1000)
